Results reported in patent publication US20090203661A1, “Betulinic acid, derivatives and analogs thereof and uses therefor” (priority 2006, published 2009).

What was measured:
PPARγ = target: T1, PPARγ (Homo sapiens, UniProt P37231); experiment: Mammalian two-hybrid assay (VP-PPARγ / GAL4-coactivator) in SW480 cells; type: cell-based
T1 construct: containing the DEF region of the PPARγ (amino acids 183-505) fused to the pVP16 expression vector; expressed in transfected cells; host or cells: SW480 colon cancer cells; plasmid provided by Dr. Shigeaki Kato (University of Tokyo)
T1 sequence (P37231 183-505): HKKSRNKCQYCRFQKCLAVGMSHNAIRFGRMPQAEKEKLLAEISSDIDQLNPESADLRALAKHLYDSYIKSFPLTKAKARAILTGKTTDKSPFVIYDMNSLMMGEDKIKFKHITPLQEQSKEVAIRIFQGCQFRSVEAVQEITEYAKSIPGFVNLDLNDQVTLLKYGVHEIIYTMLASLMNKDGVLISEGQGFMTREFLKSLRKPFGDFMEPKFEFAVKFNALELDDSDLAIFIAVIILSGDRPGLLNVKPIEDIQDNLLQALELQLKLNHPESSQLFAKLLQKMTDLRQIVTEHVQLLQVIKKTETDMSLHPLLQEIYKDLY
Method: The GAL4 reporter construct containing 5×GAL4 response elements (p GAL4) was provided by Dr. Marty Mayo (University of […], Chapel Hill, N.C.). The GAL4-coactivator fusion plasmids pM-SRC1, pMSRC2, pMSRC3, pM-DRIP205, pM-CARM-1 and PPARγ-VP16 fusion plasmid (Vp-PPARγ) containing the DEF region of the PPARγ (amino acids 183-505) fused to the pVP16 expression vector were provided by Dr. Shigeaki Kato (University of Tokyo, Tokyo, Japan). SW480 colon cancer cells were plated in 12-well tissue culture plates at 1×10^5 cells per well in DMEM/Ham's F-12 medium supplemented with 2.5% charcoal stripped FBS.
After allowing them to adhere overnight, transient transfections were carried out with GAL4-Luc (0.4 μg), β-GAL (0.04 μg), VP-PPARγ (0.04 μg), pM-SRC1 (0.04 μg), pM-PGC-1 (0.04 μg), pM-SMRT (0.04 μg), pM-TRAP220 (0.04 μg), pM-DRIP205 (0.04 μg), and pMCARM1 (0.04 μg) using LipofectAMINE2000 (Invitrogen) following the manufacturer's guidelines. After 6 hr of transfection, cells were treated in triplicate either with vehicle (DMSO) or the indicated compound suspended in complete medium for 20-24 hr. One hundred μL per well of 1× Reporter Lysis Buffer (Promega) was used to lyse the cells and 30 μl of this lysate was used to perform the luciferase and β-GAL assays using Lumicount (Perkin-Elmer Life and Analytical Sciences, Boston, Mass.). The luciferase activities obtained were normalized to the β-gal activity.

p21 promoter = experiment: Chromatin immunoprecipitation (ChIP) assay, p21 promoter, Panc-28 cells; type: cell-based, human; conditions: 5 μM, 1 or 2 hr
Method: Panc-28 cells were treated with the different compounds as indicated for 24 hr and whole cell lysates were obtained and analyzed by immunoblots. […] Cells were transfected with the various constructs, treated with DMSO, BA, CN-BA, CN-BA-Me alone or in combination with T007, and luciferase activity determined. Results of all transactivation studies in this Figure are presented as means±SE for at least three separate determinations for each treatment group. Significant (p<0.05) induction compared to solvent (DMSO) control (*) and inhibition by cotreatment with T007 (**) are indicated. FIGS. 10D-10F show chromatin immunoprecipitation assays. Primers designed for the proximal region of the p21 promoter (FIG. 10D) were used for a ChIP assay in Panc-28 cells (FIG. 10E) treated with DMSO, 5 μM BA, 5 μM CN-BA, and 5 μM CN-BA-Me for 1 or 2 hr. Analysis of interactions of Sp1 and PPARγ with the p21 promoter were carried out in the ChIP assay as described. The ChIP assay was also used to examine binding of TFIIB to the GAPDH promoter (positive control) (FIG. 10F) and to exon 1 of CNAP1 (negative control).
The ligand-dependent recruitment of PPARγ to the p21 promoter by CN-BA and CN-BA-Me was examined using a ChIP assay of Panc-28 cells treated with the betulinic acid, CN-BA and CN-BA-Me for 1 or 2 hr. […] This is consistent with receptor-independent activation of p21 by betulinic acid and the mechanism of this response is currently being investigated. As a control for this experiment, transcription factor TFIIb bound to the proximal region of the GAPDH gene promoter but not to exon-1 of the CNAP1 gene.

HCT-15 cells = experiment: Caveolin-1 expression (Western blot) in HCT-15 cells; type: cell-based, human; conditions: HCT-15, cotreatment with T007
Method: SW480, HT-29, HCT-15 and Panc-28 (3×10^5) colon cancer cells were seeded in 6-well tissue culture plates in DMEM/Ham's F-12 medium containing 2.5% charcoal-stripped FBS. Protein is extracted from the cells treated either with vehicle or indicated compounds suspended for 24 hr except for caveolin-1 protein which was done for 72 hr. Samples were extracted in high salt buffer [50 mmol/L HEPES, 500 mmol/L NaCl, 1.5 mmol/L MgCl2, 1 mmol/L EGTA, 10% glycerol, and 1% Triton X-100 (pH 7.5), and 5 μL/mL protease inhibitor cocktail (Sigma-Aldrich)]. Samples were incubated at 100° C. for 2 min, separated on either 10% or 12% SDS-PAGE gels and then transferred to polyvinylidene difluoride membrane (PVDF; Bio-Rad, Hercules, Calif.). The PVDF membrane was blocked in 5% TBST-Blotto (10 mM Tris HCl, 150 mM NaCl, pH 8.0, 0.05% Triton X-100, and 5% nonfat dry milk) for about 30 min and was then incubated in fresh 5% TBST-Blotto with 1:1000 for caveolin-1 (Santa Cruz Biotechnology, Santa Cruz, Calif.), 1:1000 for p21 (BD Pharmingen, Frank lakes, NJ) and 1:10000 for β-actin (Sigma) primary antibody overnight with gentle shaking at 4° C. After washing with TBST for 10 min, the membrane was incubated with respective secondary antibody (1:5000) (Santa cruz, Calif.) in 5% TBST-Blotto for 3 hr. […]

SW480 cells = experiment: Caveolin-1 expression (Western blot) in SW480 cells; type: cell-based, human; conditions: SW480, 72 hr
Method: SW480, HT-29, HCT-15 and Panc-28 (3×10^5) colon cancer cells were seeded in 6-well tissue culture plates in DMEM/Ham's F-12 medium containing 2.5% charcoal-stripped FBS. Protein is extracted from the cells treated either with vehicle or indicated compounds suspended for 24 hr except for caveolin-1 protein which was done for 72 hr. Samples were extracted in high salt buffer [50 mmol/L HEPES, 500 mmol/L NaCl, 1.5 mmol/L MgCl2, 1 mmol/L EGTA, 10% glycerol, and 1% Triton X-100 (pH 7.5), and 5 μL/mL protease inhibitor cocktail (Sigma-Aldrich)]. Samples were incubated at 100° C. for 2 min, separated on either 10% or 12% SDS-PAGE gels and then transferred to polyvinylidene difluoride membrane (PVDF; Bio-Rad, Hercules, Calif.). The PVDF membrane was blocked in 5% TBST-Blotto (10 mM Tris HCl, 150 mM NaCl, pH 8.0, 0.05% Triton X-100, and 5% nonfat dry milk) for about 30 min and was then incubated in fresh 5% TBST-Blotto with 1:1000 for caveolin-1 (Santa Cruz Biotechnology, Santa Cruz, Calif.), 1:1000 for p21 (BD Pharmingen, Frank lakes, NJ) and 1:10000 for β-actin (Sigma) primary antibody overnight with gentle shaking at 4° C. After washing with TBST for 10 min, the membrane was incubated with respective secondary antibody (1:5000) (Santa cruz, Calif.) in 5% TBST-Blotto for 3 hr. The membrane is then washed with TBST for 10 min, incubated with chemiluminiscence reagent from Perkin Elmer for one min and then exposed to Kodak X-OMAT AR autoradiography film (Eastman Kodak, Rochester, N.Y.).

RKO colon cancer cells = experiment: Western blot of proapoptotic responses and Sp proteins in RKO cells; type: cell-based
Method: RKO cells were […] with BA or CN-BA for 24 hr and whole cell lysates were examined by Western blot analysis.
RKO colon cancer cells were treated with BA/CN-BA for 24 hr (FIG. 15A) or 48 hr (FIG. 15B) and Miapaca-2 pancreatic cancer cells were treated with BA/CN-BA for 24 hr (FIG. 15C). Whole cell lysates were examined by Western blot analysis.

activation of GAL4-CARM1 (PPARγ)	SMILES	luciferase activity, VP-PPARγ with GAL4 PGC-1 and GAL4 SRC-1 (PPARγ)	Sp1 binding to p21 promoter (p21 promoter)	recruitment of PPARγ to proximal GC-rich region of p21 promoter (p21 promoter)	effect of T007 on induced caveolin-1 response (HCT-15 cells)	caveolin-1 induction (SW480 cells)	caveolin-1 protein level (SW480 cells)	Sp protein expression (RKO colon cancer cells; 24 and 48 hr)	ATF3, JNK phosphorylation, CHOP and DR5 (RKO colon cancer cells; 24 hours)	proapoptotic responses (RKO colon cancer cells; 24 hours)	concentrations decreasing Sp proteins (RKO colon cancer cells; 48 hr) [µM]
	CC(C)C1CCC2(C(=O)O)CCC3(C)C(CCC4C5(C)C=C(C#N)C(=O)C(C)(C)C5CCC43C)C12 (centres unmarked) [CN-BA]	significantly induced luciferase activity	enhanced binding of Sp1	recruited PPARγ	inhibition of the induced caveolin-1 response	did not induce caveolin-1 expression	decreased expression	decrease Sp protein expression	activate	activate proapoptotic responses	
activated	COC(=O)C12CCC(C(C)C)C1C1CCC3C4(C)C=C(C#N)C(=O)C(C)(C)C4CCC3(C)C1(C)CC2 (centres unmarked) [CN-BA-Me, Methyl 2-cyano-lup-1-en-3-oxo-20-oate]	significantly induced luciferase activity	enhanced binding of Sp1	recruited PPARγ	inhibition of the induced caveolin-1 response	did not induce caveolin-1 expression	decreased expression				
	C=C(C)[C@@H]1CC[C@]2(C(=O)O)CC[C@]3(C)[C@H](CC[C@@H]4[C@@]5(C)CC[C@H](O)C(C)(C)[C@@H]5CC[C@]43C)[C@@H]12 [betulinic acid, Betulinic acid]										1 to 5
